Our source for the IC50 values is patent publication US11970493B2, “Autotaxin inhibitor compounds” (ILDONG PHARMACEUTICAL CO., LTD., priority 2020, dated 2024).

For the assay, the target named is hATX/ENPP2 (Homo sapiens, UniProt Q13822). Nature of the assay: hATX/ENPP2 biochemical assay using 16:0-LPC as substrate (Amplex Red/choline oxidase/HRP fluorescence). Conditions: hENPP2 2.5 nM, LPC (16:0) substrate. As for the experimental part:
The enzyme is diluted in 50 mM Tris-HCl pH 8.0, 140 mM NaCl, 5 mM CaCl2, 0.01% Triton X-100 in a total volume of 5 μL. The aqueous solution of enzyme is added to the wells and incubated with different concentrations of the compounds at room temperature for 15 min. The reaction is started by the addition of 5 μL of 80 μM LPC (16:0) and 10 μL of the detection mixture containing 200 μM Amplex Red, 10 U/mL choline oxidase and 4 U/mL HRP. Fluorescence at 590 nm was measured kinetically with excitation at 530 nm. The slope of the curve (from 60 to 70 min of the reaction time) was used to calculate the compounds' IC50 values.

As usually defined, the IC50 is the concentration that inhibits the measured activity by half. A low value points to greater potency in that assay. In turn, `CCc1nc2ccc(-c3cnc(N4CCC(NC(=O)C5(C#N)CC5)CC4)nc3)cn2c1N(C)c1nc(-c2ccc(F)cc2)c(C#N)s1` [Compound 20, 1-cyano-N-(1-(5-(3-((5-cyano-4-(4-fluorophenyl)thiazol-2-yl)(methyl)amino)-2-ethylimidazo[1,2-a]pyridin-6-yl)pyrimidin-2-yl)piperidin-4-yl) cyclopropane-1-carboxamide] yielded an IC50 of 20 to 200 nM.

`CCc1nc2ccc(-c3cnc(NC4CCN(C(=O)C5(O)CC5)CC4)nc3)cn2c1N(C)c1nc(-c2ccc(F)cc2)c(C#N)s1` [Compound 21, 2-((2-ethyl-6-(2-((1-(1-hydroxycyclopropane-1-carbonyl)piperidin-4-yl)amino)pyrimidin-5-yl)imidazo[1,2-a]pyridin-3-yl)(methyl)amino)-4-(4-fluorophenyl) thiazole-5-carbonitrile] returned a half-maximal inhibitory concentration (IC50) of 20 to 200 nM.

On to `CCc1nc2ccc(-c3cnc(NC4CCNCC4)nc3)cn2c1N(C)c1nc(-c2ccc(F)cc2)c(C#N)s1` [Compound 22, 2-((2-ethyl-6-(2-(piperidin-4-ylamino)pyrimidin-5-yl)imidazo[1,2-a]pyridin-3-yl)(methyl)amino)-4-(4-fluorophenyl)thiazole-5-carbonitrile], for which the IC50 is > 200 nM.

The molecule `CCc1nc2ccc(-c3cnc(N4CC(NC(=O)[C@H]5C[C@H](O)CN5)C4)nc3)cn2c1N(C)c1nc(-c2ccc(F)cc2)c(C#N)s1` [Compound 23, (2R,4S)—N-(1-(5-(3-((5-cyano-4-(4-fluorophenyl)thiazol-2-yl)(methyl)amino)-2-ethylimidazo[1,2-a]pyridin-6-yl)pyrimidin-2-yl)azetidin-3-yl)-4-hydroxypyrrolidine-2-carboxamide] showed a 50% inhibitory concentration (IC50) of 20 to 200 nM.

`CCc1nc2ccc(-c3cnc(N4CC(NC(=O)[C@@H]5C[C@H](O)CN5)C4)nc3)cn2c1N(C)c1nc(-c2ccc(F)cc2)c(C#N)s1` [Compound 24, (2S,4S)—N-(1-(5-(3-((5-cyano-4-(4-fluorophenyl)thiazol-2-yl)(methyl)amino)-2-ethylimidazo[1,2-a]pyridin-6-yl)pyrimidin-2-yl)azetidin-3-yl)-4-hydroxy pyrrolidine-2-carboxamide] came in with an IC50 of 20 to 200 nM.

`CCc1nc2ccc(-c3cnc(N4CC(NC(=O)[C@H]5C[C@@H](O)CN5)C4)nc3)cn2c1N(C)c1nc(-c2ccc(F)cc2)c(C#N)s1` [Compound 25, (2R,4R)—N-(1-(5-(3-((5-cyano-4-(4-fluorophenyl)thiazol-2-yl)(methyl)amino)-2-ethylimidazo[1,2-a]pyridin-6-yl)pyrimidin-2-yl)azetidin-3-yl)-4-hydroxypyrrolidine-2-carboxamide] displayed an IC50 of 20 to 200 nM.

With `CCc1nc2ccc(-c3cnc(N4CC(NC(=O)[C@@H]5C[C@@H](O)CN5)C4)nc3)cn2c1N(C)c1nc(-c2ccc(F)cc2)c(C#N)s1` [Compound 26, (2S,4R)—N-(1-(5-(3-((5-cyano-4-(4-fluorophenyl)thiazol-2-yl)(methyl)amino)-2-ethylimidazo[1,2-a]pyridin-6-yl)pyrimidin-2-yl)azetidin-3-yl)-4-hydroxypyrrolidine-2-carboxamide], the IC50 is 20 to 200 nM.

With `CCc1nc2ccc(-c3cnc(N4CC(NC5CNC5)C4)nc3)cn2c1N(C)c1nc(-c2ccc(F)cc2)c(C#N)s1` [Compound 27, 2-((6-(2-(3-(azetidin-3-ylamino)azetidin-1-yl)pyrimidin-5-yl)-2-ethylimidazo[1,2-a]pyridin-3-yl)(methyl)amino)-4-(4-fluorophenyl)thiazole-5-carbonitrile], the IC50 was 20 to 200 nM.

`CCc1nc2ccc(-c3cnc(N4CC(NC5(C#N)CC5)C4)nc3)cn2c1N(C)c1nc(-c2ccc(F)cc2)c(C#N)s1` [Compound 28, 2-((6-(2-(3-((1-cyanocyclopropyl)amino)azetidin-1-yl)pyrimidin-5-yl)-2-ethylimidazo[1,2-a]pyridin-3-yl)(methyl)amino)-4-(4-fluorophenyl)thiazole-5-carbonitrile] gave a concentration for half-maximal inhibition (IC50) of 20 to 200 nM.

The molecule `CCc1nc2ccc(-c3cnc(N4CC(NC(=O)C5(C#N)CC5)C4)nc3)cn2c1N(C)c1nc(-c2ccc(F)cc2)c(C#N)s1` [Compound 29, 1-cyano-N-(1-(5-(3-((5-cyano-4-(4-fluorophenyl)thiazol-2-yl)(methyl)amino)-2-ethylimidazo[1,2-a]pyridin-6-yl)pyrimidin-2-yl)azetidin-3-yl)cyclopropane-1-carboxamide] gave an IC50 of 20 to 200 nM.

Molecule `CCc1nc2ccc(-c3cnc(N4CC(NC(=O)C5(O)CC5)C4)nc3)cn2c1N(C)c1nc(-c2ccc(F)cc2)c(C#N)s1` [Compound 31, N-(1-(5-(3-((5-cyano-4-(4-fluorophenyl)thiazol-2-yl)(methyl)amino)-2-ethylimidazo[1,2-a]pyridin-6-yl)pyrimidin-2-yl)azetidin-3-yl)-1-hydroxycyclopropane-1-carboxamide] yielded a half-maximal inhibitory concentration (IC50) of 20 to 200 nM.

For `CCc1nc2ccc(-c3cnc(N4CC(C(=O)NC5(C#N)CC5)C4)nc3)cn2c1N(C)c1nc(-c2ccc(F)cc2)c(C#N)s1` [Compound 32, 1-(5-(3-((5-cyano-4-(4-fluorophenyl)thiazol-2-yl)(methyl)amino)-2-ethylimidazo[1,2-a]pyridin-6-yl)pyrimidin-2-yl)-N-(1-cyanocyclopropyl)azetidine-3-carboxamide], the IC50 is ≤ 20 nM.

Consider `CCc1nc2ccc(-c3cnc(N4CC(C(=O)NC5(CO)CC5)C4)nc3)cn2c1N(C)c1nc(-c2ccc(F)cc2)c(C#N)s1` [Compound 33, 1-(5-(3-((5-cyano-4-(4-fluorophenyl)thiazol-2-yl)(methyl)amino)-2-ethylimidazo[1,2-a]pyridin-6-yl)pyrimidin-2-yl)-N-(1-(hydroxylmethyl)cyclopropyl)azetidine-3-carboxamide], for which the IC50 was ≤ 20 nM.

In the case of `CCc1nc2ccc(-c3cnc(NC4CNC4)nc3)cn2c1N(C)c1nc(-c2ccc(F)cc2)c(C#N)s1` [Compound 34, 2-((6-(2-(azetidin-3-ylamino)pyrimidin-5-yl)-2-ethylimidazo[1,2-a]pyridin-3-yl)(methyl)amino)-4-(4-fluorophenyl)thiazole-5-carbonitrile], the IC50 was > 200 nM.

For the molecule `CCc1nc2ccc(-c3cnc(NC4CN(C(=O)C5(O)CC5)C4)nc3)cn2c1N(C)c1nc(-c2ccc(F)cc2)c(C#N)s1` [Compound 35, 2-((2-ethyl-6-(2-((1-(1-hydroxycyclopropane-1-carbonyl)azetidin-3-yl)amino)pyrimidin-5-yl)imidazo[1,2-a]pyridin-3-yl) (methyl)amino)-4-(4-fluorophenyl)thiazole-5-carbonitrile], the IC50 lay in the range of 20 to 200 nM.

Regarding `CCc1nc2ccc(-c3cnc(NC4CN(C(=O)C5CNC5)C4)nc3)cn2c1N(C)c1nc(-c2ccc(F)cc2)c(C#N)s1` [Compound 36, 2-((6-(2-((1-(azetidine-3-carbonyl)azetidin-3-yl)amino)pyrimidin-5-yl)-2-ethylimidazo[1,2-a]pyridin-3-yl)(methyl)amino)-4-(4-fluorophenyl) thiazole-5-carbonitrile], the IC50 lay within 20 to 200 nM.

Regarding `CCc1nc2ccc(-c3cnc(NC4CN(C(=O)N5CC(O)C5)C4)nc3)cn2c1N(C)c1nc(-c2ccc(F)cc2)c(C#N)s1` [Compound 37, 2-((2-ethyl-6-(2-((1-(3-hydroxyazetidine-1-carbonyl)azetidin-3-yl)amino)pyrimidin-5-yl)imidazo[1,2-a]pyridin-3-yl)(methyl)amino)-4-(4-fluorophenyl)thiazole-5-carbonitrile], the half-maximal inhibitory concentration (IC50) is 20 to 200 nM.

`CCc1nc2ccc(-c3cnc(NCC4CN(C(=O)N5CC(O)C5)C4)nc3)cn2c1N(C)c1nc(-c2ccc(F)cc2)c(C#N)s1` [Compound 39, 2-((2-ethyl-6-(2-(((1-(3-hydroxyazetidine-1-carbonyl)azetidin-3-yl)methyl)amino)pyrimidin-5-yl)imidazo[1,2-a]pyridin-3-yl)(methyl)amino)-4-(4-fluorophenyl)thiazole-5-carbonitrile] returned an IC50 of 20 to 200 nM.

Take `CCc1nc2ccc(-c3cnc(NCC4CN(C(=O)C5CNC5)C4)nc3)cn2c1N(C)c1nc(-c2ccc(F)cc2)c(C#N)s1` [Compound 40, 2-((6-(2-(((1-(azetidine-3-carbonyl)azetidin-3-yl)methyl)amino)pyrimidin-5-yl)-2-ethylimidazo[1,2-a]pyridin-3-yl)(methyl)amino)-4-(4-fluorophenyl)thiazole-5-carbonitrile]: the IC50 was > 200 nM.

Turning to `CCc1nc2ccc(-c3cnc(NCC4CN(C(=O)C5(O)CC5)C4)nc3)cn2c1N(C)c1nc(-c2ccc(F)cc2)c(C#N)s1` [Compound 41, 2-((2-ethyl-6-(2-(((1-(1-hydroxycyclopropane-1-carbonyl)azetidin-3-yl)methyl)amino)pyrimidin-5-yl)imidazo[1,2-a]pyridin-3-yl)(methyl)amino)-4-(4-fluorophenyl)thiazole-5-carbonitrile], the IC50 lay in the range of 20 to 200 nM.

In the case of `CCc1nc2ccc(-c3cnc(N4CCN(CC(=O)N5CC[C@@H](O)C5)CC4)nc3)cn2c1N(C)c1nc(-c2ccc(F)cc2)c(C#N)s1` [Compound 45, (R)-2-((2-ethyl-6-(2-(4-(2-(3-hydroxypyrrolidin-1-yl)-2-oxoethyl)piperazin-1-yl)pyrimidin-5-yl)imidazo[1,2-a]pyridin-3-yl)(methyl)amino)-4-(4-fluorophenyl)thiazole-5-carbonitrile], the concentration for half-maximal inhibition (IC50) was ≤ 20 nM.

Consider `CCc1nc2ccc(-c3cnc(N4CCN(CC(=O)N5CC[C@H](O)C5)CC4)nc3)cn2c1N(C)c1nc(-c2ccc(F)cc2)c(C#N)s1` [Compound 46, (S)-2-((2-ethyl-6-(2-(4-(2-(3-hydroxypyrrolidin-1-yl)-2-oxoethyl)piperazin-1-yl)pyrimidin-5-yl)imidazo[1,2-a]pyridin-3-yl)(methyl)amino)-4-(4-fluorophenyl)thiazole-5-carbonitrile], for which the IC50 was ≤ 20 nM.
